The values below come from publication PMC9551036, “A selective and orally bioavailable VHL-recruiting PROTAC achieves SMARCA2 degradation in vivo” (Nature Communications, 2022).

Test [1] addresses T1, (Homo sapiens, UniProt P51532).
T1 construct: P51532, residues 1448–1569 with additional N-terminal SM residues; GST (TEV site) (N); His6 (TEV site) (N, cleaved yes); made in house; host or cells: SMARCA4^BD: Escherichia coli BL21(DE3)
Description: TR-FRET ternary complex affinity and cooperativity, SMARCA4. The format is binding.

For a further test, the system named is NCI-H1568 cells. Description: Cell viability assay (CellTiter Glo) in NCI-H1568. Format: cell-based, human. The conditions noted are these: for EC50: read-out: EC50 cell proliferation (CellTiter Glo); for IC50: NCI-H1568, (18h), CellTiter Glo, individual replicates, read-out: NCI-H1568 (18h) CTG. The method, then: 500–2000 cells were seeded in white, clear bottom 96-well plates (Corning or Perkin Elmer) in 180–200 µl medium per well. The next day, compounds were added using a digital dispenser and a T0 sample was measured for reference. […], and viability (luminescence) was measured using CellTiter Glo or CellTiter Glo 2.0 (Promega) according to manufacturer’s instructions after equilibrating cells and reagents at room temperature and 10–20 min incubation time while shaking.

In test [2] the target is T2, SMARCA2 (Homo sapiens, UniProt P51531). Description: SMARCA2 capillary electrophoresis protein assay in RKO cells. On the set-up: endogenous in cells; host or cells: RKO, NCI-H1568, A549, HCT116, LU99, HCC-364, HCT-15, HCC4006, SK-N-AS. Format: cell-based. The conditions noted are these: mean ± SD; for Dmax: RKO. How it is done:
130,000–200,000 cells were seeded in 24-well plates and incubated until settled down or overnight. Compounds were dissolved in DMSO and added to cells in indicated concentrations using a digital dispenser following an optional media change. […] For SMARCA2/4 half-life determination, 150,000 or 200,000 cells were seeded in 24-well plates. […] For SMARCA2/4 re-synthesis measurements, 200,000 cells were seeded in 24-well plates. […] Medium was removed, cells were washed with PBS and lysed with 80 µl Lysis Buffer (MSD Tris Lysis Buffer (#R60TX-2) + Halt Inhibitor Cocktail (100x) + Benzonase 0.5 µL/ml). Samples were frozen at −80 °C and thawed at room temperature before use. Samples were transferred to a V-bottom plate and insoluble debris was pelleted by centrifugation for 5 min at maximum speed. The supernatant was transferred to a fresh plate. Master Mix and Ladder were prepared according to manufacturer’s instructions for 12–230 kDa Wes Separation Module, 8 × 25 capillary cartridges, Protein Simple #SM-W004 with Anti-Rabbit Detection Module for Wes, Peggy Sue or Sally Sue, Protein Simple #DM-001. 4.8 µl lysate were mixed with 1.2 µl Master Mix to achieve a protein concentration of ~0.5 µg/µl. […] Wes plates were prepared and run according to manufacturer’s instructions. Proteins were quantified with accompanying Compass Software. SMARCA2/4 protein levels were normalised to GAPDH. […] Where applicable, curves were fitted using a 4-parametric logistic model.

Test [3] deals with T2, SMARCA2. Description: Imaging-based SMARCA2 protein assay in RKO cells. Format: cell-based. Also on record: endogenous in cells; host or cells: RKO, NCI-H1568, A549, HCT116, LU99, HCC-364, HCT-15, HCC4006, SK-N-AS. The conditions noted are these: individual replicates. The method, then: 1250 cells per well in 60 µl medium were plated in flat bottom, poly-lysin coated 384-well plates (CellCarrier Ultra, Perkin Elmer). The next day, test compounds (10 µl of serial dilutions) and DMSO controls were diluted in DMEM medium such that the final DMSO content was <1% or were added using an ultrasound dispensing system. 4 wells were reserved for a background measurement. […] After aspirating the fixing solution, the cells were washed once with 25 µl PBS. 25 µl of blocking buffer (10% goat serum in PBS) was added and cells were incubated for 30 min, then washed once with PBS. […] Cells were again washed once with PBS. […] The cell layer was then washed once with 25 µl PBS, the wells were filled with 25 µl PBS and the plates were sealed with an adhesive sheet. They were then imaged on the Opera Phoenix (mean intensity in the nucleus). […] EC50 values were computed using a 4-parametric logistic model.

[4] abbreviates: binary, PROTAC alone, individual replicates, read-out: SMARCA4 BD EC50.
Where [5] appears, read: 4h, read-out: RKO (4h) SMARCA2 DC50.
Setting [6] is: 18h, read-out: RKO (18h) SMARCA2 DC50.

Several values for one entry are separate records, joined by “and”; a condition that tells them apart may be missing. Equal values may be shown once. Read-outs that look alike come from different tables or passages of the source. Bounds are passed on as bounds.

T2 sequence (P51531 whole entry): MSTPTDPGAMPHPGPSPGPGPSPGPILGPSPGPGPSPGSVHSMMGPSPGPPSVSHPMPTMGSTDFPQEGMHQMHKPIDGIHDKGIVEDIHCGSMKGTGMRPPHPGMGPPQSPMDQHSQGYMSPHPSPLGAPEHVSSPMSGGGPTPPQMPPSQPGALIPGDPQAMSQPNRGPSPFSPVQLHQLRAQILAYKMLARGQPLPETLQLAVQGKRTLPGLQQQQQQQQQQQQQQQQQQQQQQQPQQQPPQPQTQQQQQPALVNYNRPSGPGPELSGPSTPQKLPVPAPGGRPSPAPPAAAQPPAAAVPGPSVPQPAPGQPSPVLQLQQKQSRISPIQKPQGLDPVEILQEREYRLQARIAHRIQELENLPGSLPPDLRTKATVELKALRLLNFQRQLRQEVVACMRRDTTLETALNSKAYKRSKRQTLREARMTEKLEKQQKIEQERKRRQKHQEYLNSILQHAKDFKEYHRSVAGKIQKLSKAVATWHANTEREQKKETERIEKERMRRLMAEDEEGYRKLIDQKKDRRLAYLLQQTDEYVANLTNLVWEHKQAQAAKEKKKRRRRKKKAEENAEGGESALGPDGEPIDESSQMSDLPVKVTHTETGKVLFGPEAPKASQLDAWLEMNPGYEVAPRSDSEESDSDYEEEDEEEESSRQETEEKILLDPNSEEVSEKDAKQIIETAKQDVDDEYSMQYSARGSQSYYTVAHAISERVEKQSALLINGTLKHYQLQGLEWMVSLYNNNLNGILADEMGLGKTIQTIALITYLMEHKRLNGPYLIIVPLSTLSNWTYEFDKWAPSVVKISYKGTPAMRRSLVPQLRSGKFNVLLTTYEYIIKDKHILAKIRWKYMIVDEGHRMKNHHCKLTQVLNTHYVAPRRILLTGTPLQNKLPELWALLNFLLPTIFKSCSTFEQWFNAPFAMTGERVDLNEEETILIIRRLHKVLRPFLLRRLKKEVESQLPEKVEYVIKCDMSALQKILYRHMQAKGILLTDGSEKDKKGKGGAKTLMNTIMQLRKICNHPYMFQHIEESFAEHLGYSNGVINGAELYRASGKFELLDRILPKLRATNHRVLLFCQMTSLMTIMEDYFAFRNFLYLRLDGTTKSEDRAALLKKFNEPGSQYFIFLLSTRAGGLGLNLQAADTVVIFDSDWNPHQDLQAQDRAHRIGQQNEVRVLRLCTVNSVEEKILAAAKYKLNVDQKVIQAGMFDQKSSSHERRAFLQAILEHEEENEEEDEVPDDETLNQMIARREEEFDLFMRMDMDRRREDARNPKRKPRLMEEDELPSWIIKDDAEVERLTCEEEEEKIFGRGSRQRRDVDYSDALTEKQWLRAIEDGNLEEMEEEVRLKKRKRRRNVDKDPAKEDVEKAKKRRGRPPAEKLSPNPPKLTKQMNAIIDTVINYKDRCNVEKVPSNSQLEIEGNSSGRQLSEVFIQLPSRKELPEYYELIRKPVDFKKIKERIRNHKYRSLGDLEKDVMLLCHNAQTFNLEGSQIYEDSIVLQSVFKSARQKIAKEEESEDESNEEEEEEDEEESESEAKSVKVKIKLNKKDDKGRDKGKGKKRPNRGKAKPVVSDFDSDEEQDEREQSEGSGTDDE
T1 sequence (P51532 1448-1569): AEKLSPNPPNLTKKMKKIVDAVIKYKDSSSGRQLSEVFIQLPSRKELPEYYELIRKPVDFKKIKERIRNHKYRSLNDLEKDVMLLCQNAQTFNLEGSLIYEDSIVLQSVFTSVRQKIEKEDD

Turning to `CN1CCN(c2nc(=O)c3c(F)cccc3o2)CC1` [compound 17], the EC50 is more than 10000 nM in test [1] (setting [4]) and more than 10000 nM in the test on NCI-H1568 cells (NCI-H1568 ([…]), mean ± SD). For the same compound, the IC50 in the test on NCI-H1568 cells was more than 10000 nM. Also, the DC50 on SMARCA2 [2] (RKO (4 h)), at SMARCA2 [2] (RKO (18 h)), at SMARCA2 [3] (setting [5]) and at SMARCA2 [3] (setting [6]) was more than 25000 nM in each case.

As for `CN1CCN(c2nc(=O)c3c(Br)cccc3o2)CC1` [compound 15], the EC50 is more than 10000 nM in test [1] (setting [4]) and more than 10000 nM in the test on NCI-H1568 cells (NCI-H1568 ([…]), mean ± SD). Besides, in the test with NCI-H1568 cells, the IC50 was more than 10000 nM. For the same compound, the DC50 at SMARCA2 [2] (RKO (4 h)), on SMARCA2 [2] (RKO (18 h)), on SMARCA2 [3] (setting [5]) and on SMARCA2 [3] (setting [6]) was more than 25000 nM throughout.

On to `Cc1ncsc1-c1ccc([C@H](COCCN2CCC(c3ccc4c(c3)n(C3CCCC3)c3nc(=O)c5c(Br)cccc5n43)CC2)NC(=O)[C@@H]2C[C@@H](O)CN2C(=O)[C@@H](NC(=O)C2(N(C)C)CC2)C(C)(C)C)cc1` [compound 26], for which the EC50 in test [1] (TR-FRET competition for SMARCA4BD, without VCB, mean ± SD, read-out: TR-FRET SMARCA4BD EC50) was 149 ± 41 nM; in test [1] (setting [4]), 136 nM and 180 nM and 162 nM and 117 nM and 111 nM and 126 nM and 154 nM and 147 nM and 247 nM; in the test with NCI-H1568 cells (Homo sapiens, NCI-H1568, […]), 33 ± 25 nM. The IC50 in the test on NCI-H1568 cells was 52.4 nM and 57.1 nM and 12.2 nM. Besides, the DC50 was 12 ± 7 nM at SMARCA2 [2] (RKO (4 h)); 6 ± 2 nM on SMARCA2 [2] (RKO (18 h)); 13.4 nM and 7.13 nM and 22 nM and 9.24 nM at SMARCA2 [3] (setting [5]); 3.5 nM and 6.73 nM and 7.09 nM at SMARCA2 [3] (setting [6]). Moreover, the Dmax on SMARCA2 [2] (RKO (4 h)) is 77 ± 3%; at SMARCA2 [2] (RKO (18 h)) it was 82 ± 4%.
